Results from patent publication US20230357219A1, “PREPARATION OF BIARYL RING-LINKED AROMATIC HETEROCYCLIC DERIVATIVE AS IMMUNOMODULATOR AND USE THEREOF” (SHANGHAI LONGWOOD BIOPHARMACEUTICALS CO., LTD., priority 2020, published 2023).

target: PD-1/PD-L1 (Homo sapiens (Human), UniProt Q9NZQ7); test: PD-1/PD-L1 Homogeneous Time-Resolved Fluorescence (HTRF) Binding Assay; conditions: ~3 nM of PD1, 10 nM of PD-L1; 25° C., PBS buffer (pH 7.4)
Description: Assays were performed in standard black 384-well polystyrene plates and a final volume was 20 µL. The inhibitor was first serially diluted with DMSO and added to the wells of the plate, then other reaction components were added. The final concentration of DMSO in the assay was 1%. Assays were performed at 25° C. in PBS buffer (pH 7.4) containing 0.05% Tween-20 and 0.1% BSA. Recombinant human PD-L1 protein (19-238) with a His-tagged at the C-terminus was purchased from AcroBiosystems (PD1-H5229). Recombinant human PD-1 protein (25-167) with an Fc tag at the C-terminus was also purchased from AcroBiosystems (PD1-H5257). The PD-L1 and PD-1 proteins were diluted in assay buffer and then 0.1 µl of the solution was extracted and added to the wells of the plate. Plates were centrifuged and proteins and inhibitors were preincubated for 40 minutes. After incubation, 0.1 µl of HTRF detection buffer containing europium […] labeled anti-human IgG (PerkinElmer-AD0212), Fc-specific and anti-His SureLight®-Allophycocyanin (APC, PerkinElmer-AD0059H) conjugated antibodies was added. After centrifugation, the plates were incubated at 25° C. for 60 minutes. Data was read in a PHERAstar FS plate reader (665 nm/620 nm ratio). Final concentrations in the assay were ~3 nM of PD1, 10 nM of PD-L1, 1 nM of europium anti-human IgG, and 20 nM of anti-His-allophycocyanin. Activity data were fitted using GraphPad Prism 5.0 software to derive IC50 values for inhibitors. The IC50 values of the compounds exemplified in the examples are expressed in the following manner: IC50: + = ≤100 nM; ++ =100 nM-1000 nM; +++ = >1000 nM. The data of the example compounds obtained by PD-1/PD-L1 homogeneous time-resolved fluorescence (HTRF) binding assay described in Example A were provided in Table 1.

Chain of PD-1/PD-L1 (Q9NZQ7 19-238): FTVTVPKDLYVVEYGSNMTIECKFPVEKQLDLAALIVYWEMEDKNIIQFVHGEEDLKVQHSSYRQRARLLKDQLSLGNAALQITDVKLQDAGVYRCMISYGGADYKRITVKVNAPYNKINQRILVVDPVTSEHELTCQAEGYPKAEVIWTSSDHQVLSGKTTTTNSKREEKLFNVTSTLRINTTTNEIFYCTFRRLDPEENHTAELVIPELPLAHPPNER

IC50, ≤ 0.1 µM:
COc1nc(O[C@@H]2CCc3c(-c4cccc(-c5nc6cc(CN7CC[C@@H](C(=O)O)C7)cc(C#N)c6o5)c4C)cccc32)ccc1CN1CC[C@@H](O)C1 [Compound 6], COc1nc(O[C@@H]2CCc3c(-c4cccc(Nc5nccc6cc(CN7CC[C@@H](C(=O)O)C7)cnc56)c4C)cccc32)cnc1CN1CC[C@@H](O)C1 [Compound 4], COc1nc(O[C@@H]2CCc3c(-c4cccc(Nc5nccc6cc(CN7CC[C@@H](C(=O)O)C7)cnc56)c4Cl)cccc32)ccc1CN1CC[C@@H](O)C1 [Compound 10], COc1nc(O[C@@H]2CCc3c(-c4cccc(Nc5nccc6cc(CN7CC[C@@H](O)C7)cnc56)c4C)cccc32)cnc1CN1CC[C@@H](C(=O)O)C1 [Compound 5], COc1nc(O[C@@H]2CCc3c(-c4cccc(Nc5nccc6cc(CN7CC[C@@H](O)C7)cnc56)c4C)cccc32)ccc1CN1CC[C@@H](C(=O)O)C1 [Compound 3], COc1nc(O[C@@H]2CCc3c(-c4cccc(Nc5nccc6cc(CN7CC[C@@H](C(=O)O)C7)cnc56)c4Cl)cccc32)cnc1CN1CC[C@@H](O)C1 [Compound 12], COc1nc(O[C@@H]2CCc3c(-c4cccc(Nc5nccc6cc(CN7CC[C@H](O)C7)cnc56)c4Cl)cccc32)cnc1CN1CC[C@@H](C(=O)O)C1 [Compound 13], COc1nc(O[C@@H]2CCc3c(-c4cccc(Nc5nccc6cc(CN7CC[C@@H](C(=O)O)C7)cnc56)c4C)cccc32)ccc1CN1CC[C@@H](O)C1 [Compound 7], COc1nc(O[C@@H]2CCc3c(-c4cccc(-c5nc6cc(CN7CC[C@@H](O)C7)cc(C#N)c6o5)c4C)cccc32)cnc1CN1CC[C@@H](C(=O)O)C1 [Compound 9], COc1nc(O[C@@H]2CCc3c(-c4cccc(-c5nc6cc(CN7CC[C@@H](C(=O)O)C7)cc(C#N)c6o5)c4C)cccc32)cnc1CN1CC[C@@H](O)C1 [Compound 8]
